# According to patent US20260364213A1, “RADIOLABELED COMPOUNDS OF TRIMETHOPRIM AND USES THEREOF” (THE TRUSTEES OF THE UNIVERSITY OF PENNSYLVANIA, priority 2023, published 2026):
# “Also recorded” adds a separate entry of the source.
# What was measured:
# [1] = Ex vivo biodistribution in healthy Balb/c mice; design: species or system mouse
# Procedure: Given promising in vitro experimental results, a biodistribution study was conducted on healthy balb/c mice. […] Mice were then euthanized 1-hour, 4-hour, and 24-hour post radiotracer injection, and organs were harvested for bio-distribution quantification. […] Total radioactive uptake per organ, in CPM, was determined by γ-counter (Wizard Detector, Perkin Elmer). […] See, FIG. 10A-10B and FIG. 11. These tissues could be sites where eDHFR could be localized using genetic vectors to achieve a high therapeutic index.
# Another ex-vivo biodistribution study was performed with potassium iodide (SSKI) administration 8-12-week-old female balb/c mice (n=9) were administered with intraperitoneal administration for thyroid protection, with a dose of 100 mg/kg potassium iodide in a volume of 100 μL/10 g given the day before treatment, 30 minutes before the radioactive [^131I]mI-TMP injection.
# HCT116-eDHFR tumors = test: Ex vivo biodistribution in HCT116 tumor-bearing athymic nude mice; design: species or system human; details: 1.85 MBq i.v., 3 hours
# Procedure: To evaluate the therapeutic potential [^131I]mI-TMP, sixteen (16) 8- to 12-week-old female athymic nude mice (Charles River Laboratories) were inoculated with 1×10^7 HCT116 tumor cells (eDHFR+ or WT) on the left shoulder. The mice were then divided into two groups: […] (8) mice with HCT116-eDHFR (eDHFR-positive cells) and Eight (8) mice with HCT116-WT (eDHFR-negative) cells.
# Ex-vivo biodistribution studies were conducted on three (3) tumor-bearing mice from each group, while the remaining ten (10) mice were used to monitor tumor response to radiotherapy.
# Three (3) hours post radiotracer injection mice were euthanized, and organs of interest were harvested for biodistribution quantification. Total radioactive uptake per organ, in counts per minute (CPM), was determined by γ-counter (Perkin Elmer).
# I45 eDHFR-FLAG tumors = test: I45 RLT, tumor growth in CD1 nude mice; format: in vivo, human; details: 18.5 MBq/mouse i.v. single dose, n=7; listed as [^131I]I-TMP
# Procedure: RLT in I45 tumors. […] Briefly, I45 eDHFR-FLAG and WT cells were xenografted into the shoulders of female athymic CD1-Foxn1nu mice. The tumors were allowed to grow for ~2 weeks. Subsequently, [^131I]I-TMP was administered intravenously and a limited biodistribution study was performed. […] To assess for cytotoxicity in I45 mesothelioma cells, I45 WT and I45 eDHFR tumors were separately xenografted into CD1-Foxn1nu mice and either [^131I]I-TMP or saline was administered to form 4 experimental cohorts (n=7).
# [^131I]I-TMPI Administration, and Monitoring. Female CD1 nu/nu mice, aged six to eight weeks, underwent subcutaneous xenografting with 1×10^6 I45 WT and I45 eDHFR-Flag cells on the shoulder. The cells were suspended in a 1:1 volume ratio of 75 μL RPMI complete medium and 75 μL Matrigel Matrix (Corning, 354234). Both I45 WT and I45 eDHFR-Flag mice were randomly divided into two groups, with each group consisting of 7 mice. Tumors were grown for 2 weeks. […] [^131I]I-TMP, diluted in 100 μL saline, was injected into two groups containing I45 WT and I45 eDHFR-Flag xenografts on day 9 of initial tumor inoculation. The remaining two groups of I45 WT and I45 eDHFR-Flag xenografts were injected with saline. Tumor growth was monitored from two days before to 10 days after [^131I]I-TMP injection, with measurements taken every other day using calipers. […]
# [2] = system: primary human hepatocytes; test: Hepatocyte spheroid assay (liver metabolite study); format: in vitro ADME
# Procedure: Cryopreserved primary human hepatocytes were acquired from ThermoFisher. To each well of a 96 well ultra-low attachment U-bottom plate, 2,000 cells were plated in 200 μL William's E Medium (no phenol red, 20% FBS, 1% penicillin-streptomycin, 1% insulin-transferrin-selenium solution, […], 1% L-glutamine). The plate was centrifuged at 300 rpm for 2 minutes and then incubated without disturbance. After 5 days, 100 μL of spent media was removed and replaced with fresh media. […] The supernatant was then removed and analyzed on an Agilent 1260 Infinity II LC system equipped with an Eckert & Ziegler FlowCountPRO detector.
# Specifically, 2,000 cells were plated in 200 μL William's E Medium (no phenol red, 20% FBS, 1% penicillin-streptomycin, 1% insulin-transferrin-selenium solution, […], 1% L-glutamine). […] The supernatant was then removed and analyzed on an Agilent 1260 Infinity II LC system equipped with an Eckert & Ziegler FlowCountPRO detector.
# Specifically, cryopreserved hepatocytes were thawed and diluted 1:10 in a 15 mL conical tube with warm culture media (William's E Medium, no phenol red, 20% FBS, 1% penicillin-streptomycin, 1% insulin-transferrin-selenium solution, […], 1% L-glutamine). […] Cells were counted and diluted to a concentration of 10,000 live cells/mL. […] The supernatant was transferred into an autosampler vial and analyzed by HPLC.
SMILES,"stomach and liver uptake with KI pre-treatment ([1]; 0.67 MBq, 1 h)","uptake in blood, heart, lungs, brain, pancreas, bones and spleen with KI pre-treatment ([1]; 0.67 MBq, 1 h)","organ radioactivity, 24 h ([1]; 0.74 MBq i.v. tail vein, 24 h, no KI)","organ radioactivity, 1 h ([1]; 0.74 MBq i.v. tail vein, Balb/c, after 1 h time point)","uptake in heart, lungs, brain, pancreas, bones and spleen ([1]; 0.74 MBq i.v., all time points (1, 4, 24 h))","organ radioactivity with KI pre-treatment ([1]; kidney, small intestine, large intestine, 0.67 MBq, 1 h)","thyroid uptake with KI pre-treatment ([1]; potassium iodide (SSKI) 100 mg/kg, 0.67 MBq, 1 h)",uptake in eDHFR tumors relative to WT tumors (HCT116-eDHFR tumors),"tumor growth / in vivo cytotoxicity, I45 eDHFR tumors (I45 eDHFR-FLAG tumors)",de-iodination in hepatocyte culture ([2]; after 24 hours),de-iodination with CYP450 inhibitor ([2]; with 1-aminobenzotriazole (100 μM))
"COc1cc(Cc2cnc(N)nc2N)cc([131I])c1OC [[^131I]mI-TMP, 5-(3-iodo-4,5-dimethoxybenzyl)pyrimidine-2,4-diamine]",low uptake,Minimal to no uptake; also recorded: negligible uptake,"increase in radioactivity in thyroid, indicating the deiodination","significant increase in the radioactivity in the kidney, small intestine, stomach, and liver",Minimal to no uptake,"significant increase in the radioactivity in the kidney, small intestine and large intestine",abrogated thyroid uptake,twice as much,clear reduction in tumor growth; also recorded: shows in vivo cytotoxicity toward eDHFR-expressing I45 cells,,
"COc1cc(Cc2cnc(N)nc2N)cc(I)c1OC [[^131I]mI-TMP, 5-(3-iodo-4,5-dimethoxybenzyl)pyrimidine-2,4-diamine]",,,,,,,,,,minor de-iodination,could be inhibited
